Source: US3930838A, “S-benzyl-N,N-disec-butylthiocarbamate and its use as a rice field herbicide and a rice growth stimulant” (priority 1970, dated 1976)
“And” between values parts separate entries of the source, which are not always exact repeats. Identical values can stand only once.

Experiments:
rice [1] = assay: Hothouse test on rice in flooded boxes, 27 days (Example 9a); format: in vivo, rice cv. RIBE
From the text: (§1) A test was arranged in a hothouse on a set of boxes having a 1,000 cm^2 internal surface. 18 Kg. of sieved rice field earth were put into each box. After leveling, the earth surfaces of each of a set of six boxes were uniformly sprayed with hydroacetone solutions containing, respectively, 0, 0.5, 0.75, 1, 1.25, and 1.5% of M3432. 20 Cc. of solution was sprayed into each box, corresponding to 0, 10, 15, 20, 25, and 30 kg./ha., respectively. Each box was flooded with a 10 cm. water layer measured from the earth surface. The sowing was carried out immediately afterwards with a pre-germinated (cv) RIBE rice seed, employing a quantity of 40 seeds per box.
During the test, the hothouse temperature ranged from +10°to +28°C. 27 Days after the treatment, all the rice plants were recovered from each box and subjected to biometric controls.

Echinocloa spp. [2] = assay: Activity on Echinocloa in flooded hothouse boxes, first sowing (Example 14); format: in vivo; settings: 24 days
Experimental: as §1, with “20 Cc. of solution was sprayed into each box, corresponding to 0, 10, 15, 20, 25, and 30 kg./ha., respectively.” left out
The same method described in Example 9 was followed, the only variation being in sowing Echinocloa spp. (40 slightly pregerminated seeds per box) instead of rice.
24 Days after the treatment, the results were observed.

Echinocloa spp. [3] = assay: Post emergence hothouse test No. 1 (Example 16); format: in vivo; settings: 4, 6, and 8 kg./ha., 3 days; plants 3-4 cm. at treatment
Experimental: A set of boxes having a 1,000 cm^2 internal surface was prepared in a hothouse according to the method described in Example 9. The boxes were sowed with Echinocloa spp. (70 seeds per box). After saturation of the soil, and as soon as the infesting plants emerged from the soil, the boxes were flooded with a 7 cm. layer of water. When the plants reached a maximum height of 3-4 cm., the treatment was effected by spraying the flooding water surfaces with hydroacetone solutions according to the modalities employed in Example 9. 3 days after the treatment, the following results were observed: […]

rice [4] = assay: Rice seed treatment, 5000 square meter field plots, test No. 3, rice (Example 17); format: in vivo; settings: 67 days; for Rice tiller dry weight / Rice tiller number: single 1 m^2 testing area
Experimental: (§2) A further test was carried out outdoors on loam soil on plots of about 5000 square meters surface.
(§3) After flooding each plot, seeds treated as in Test No. […] In all cases, the seen quantity was 150 kg./ha. 67 days after sowing, the results were gathered on 5 representative testing areas of 1 square meter each for each dosage level.

Barnyard grass = assay: Rice seed treatment, 5000 square meter field plots, test No. 3, barnyard grass (Example 17); format: in vivo; settings: 67 days; for Barnyard grass tiller number: single 1 m^2 testing area
Experimental: as §2, §3

[5] = Acute oral toxicity, rats; settings: rat, in vivo, per os
[6] = Acute oral toxicity, mice; settings: mouse, in vivo
[7] = Solubility and volatility; format: physicochemical
rice [8] = assay: Post emergence outdoor plot test No. 3, rice (Example 16); format: in vivo; settings: 45 days, emulsifiable oil
Experimental: Some plots, 12 m^2 each, delimited by artificial levees, were prepared outdoors. AFter soil working and grading, the plots were sowed with Echinocloa spp. on May 18, 1970 and then flooded to a height of 10 cm. with water on May 20, 1970. The same day, rice was sowed in quantities corresponding to 150 kg. of seed per ha. Both rice and Echinocloa emerged from the soil 5 days after the flooding.
When the barnyard grass reached an average height of 12-14 cm., the treatment was effected by uniformly spraying the flooded water surface.
Products being tested: M3432 and molinate, in emulsifiable oil base.
Doses: 0, 4, and 6 kg./ha.
The first effects on Echinocloa spp. were noticed for both products 7 days after treatment, 45 Days after treatment the following was observed: […]

rats = settings: os, literature values; cited from earlier work

**Q.** Which results are given for `CCC(C)N(C(=O)SCc1ccccc1)C(C)CC` (stereo not shown) [M3432, S-benzyl-N,N-disec.butylthiocarbamate]?
**A.** Main root (rice [1]; 10 kg./ha.): 4.82 cm.; Main root, % of control (rice [1]; 10 kg./ha.): 150 % of control; Secondary roots (rice [1]; 10 kg./ha.): 2.82 No.; Secondary roots, % of control (rice [1]; 10 kg./ha.): 127 % of control; Shoot (rice [1]; 10 kg./ha.): 11.70 cm.; Shoot, % of control (rice [1]; 10 kg./ha.): 198 % of control; Sprouted plants (rice [1]; 10 kg./ha.): 52.5%; Sprouted plants, % of control (rice [1]; 10 kg./ha.): 131 % of control; Main root (rice [1]; 15 kg./ha.): 4.06 cm.; Main root, % of control (rice [1]; 15 kg./ha.): 131 % of control; Secondary roots (rice [1]; 15 kg./ha.): 2.95 No.; Secondary roots, % of control (rice [1]; 15 kg./ha.): 133 % of control; Shoot (rice [1]; 15 kg./ha.): 11.99 cm.; Shoot, % of control (rice [1]; 15 kg./ha.): 203 % of control; Sprouted plants (rice [1]; 15 kg./ha.): 57.5%; Sprouted plants, % of control (rice [1]; 15 kg./ha.): 144 % of control; Main root (rice [1]; 20 kg./ha.): 8.29 cm.; Main root, % of control (rice [1]; 20 kg./ha.): 267 % of control; Secondary roots (rice [1]; 20 kg./ha.): 4.42 No.; Secondary roots, % of control (rice [1]; 20 kg./ha.): 199 % of control; Shoot (rice [1]; 20 kg./ha.): 12.15 cm.; Shoot, % of control (rice [1]; 20 kg./ha.): 205 % of control; Sprouted plants (rice [1]; 20 kg./ha.): 77.5%; Sprouted plants, % of control (rice [1]; 20 kg./ha.): 193 % of control; Main root (rice [1]; 25 kg./ha.): 6.77 cm.; Main root, % of control (rice [1]; 25 kg./ha.): 218 % of control; Secondary roots (rice [1]; 25 kg./ha.): 4.66 No.; Secondary roots, % of control (rice [1]; 25 kg./ha.): 210 % of control; Shoot (rice [1]; 25 kg./ha.): 16.77 cm.; Shoot, % of control (rice [1]; 25 kg./ha.): 283 % of control; Sprouted plants (rice [1]; 25 kg./ha.): 85.0%; Sprouted plants, % of control (rice [1]; 25 kg./ha.): 212 % of control; Main root (rice [1]; 30 kg./ha.): 8.84 cm.; Main root, % of control (rice [1]; 30 kg./ha.): 285 % of control; Secondary roots (rice [1]; 30 kg./ha.): 4.90 No.; Secondary roots, % of control (rice [1]; 30 kg./ha.): 220 % of control; Shoot (rice [1]; 30 kg./ha.): 14.59 cm.; Shoot, % of control (rice [1]; 30 kg./ha.): 246 % of control; Sprouted plants (rice [1]; 30 kg./ha.): 87.5%; Sprouted plants, % of control (rice [1]; 30 kg./ha.): 219 % of control; Shoot (Echinocloa spp. [2]; 2 kg./ha.): 8.5 cm.; Stand (Echinocloa spp. [2]; 2 kg./ha.): 2.5%; Shoot (Echinocloa spp. [2]; 4 kg./ha.): 0 cm.; Stand (Echinocloa spp. [2]; 4 kg./ha.): 0%; Shoot (Echinocloa spp. [2]; 6 kg./ha.): 0 cm.; Stand (Echinocloa spp. [2]; 6 kg./ha.): 0%; Shoot (Echinocloa spp. [2]; 8 kg./ha.): 0 cm.; Stand (Echinocloa spp. [2]; 8 kg./ha.): 0%; Shoot (Echinocloa spp. [3]): 0 cm.; Stand (Echinocloa spp. [3]): 0%; Rice tiller dry weight (rice [4]; 3.4 kg./ha.): 254.50 (g.)/m^2 and 331.10 (g.)/m^2 and 301.08 (g.)/m^2 and 373.50 (g.)/m^2 and 332.00 (g.)/m^2; Rice tiller number (rice [4]; 3.4 kg./ha.): 432 (no.)/m^2 and 430 (no.)/m^2 and 421 (no.)/m^2 and 417 (no.)/m^2 and 392 (no.)/m^2; Rice tiller dry weight, average on 5 testing areas (rice [4]; 3.6 kg./ha.): 318.44 (g.)/m^2; Rice tiller number, average on 5 testing areas (rice [4]; 3.6 kg./ha.): 418.4 (no.)/m^2; Rice tiller dry weight, average on 5 testing areas (rice [4]; 4.0 kg./ha.): 438.01 (g.)/m^2; Rice tiller number, average on 5 testing areas (rice [4]; 4.0 kg./ha.): 559.0 (no.)/m^2; Rice tiller dry weight (rice [4]; 4.0 kg./ha.): 473.98 (g.)/m^2 and 316.91 (g.)/m^2 and 484.50 (g.)/m^2 and 423.55 (g.)/m^2 and 491.10 (g.)/m^2; Rice tiller number (rice [4]; 4.0 kg./ha.): 599 (no.)/m^2 and 440 (no.)/m^2 and 687 (no.)/m^2 and 523 (no.)/m^2 and 546 (no.)/m^2; Barnyard grass tiller number (Barnyard grass; 3.4 kg./ha.): 0 (no.)/m^2; Barnyard grass tiller number, average on 5 testing areas (Barnyard grass; 3.6 kg./ha.): 0 (no.)/m^2; Barnyard grass tiller number, average on 5 testing areas (Barnyard grass; 4.0 kg./ha.): 0 (no.)/m^2; Barnyard grass tiller number (Barnyard grass; 4.0 kg./ha.): 0 (no.)/m^2; LD50 [5]: 10200 mg/kg; LD50 [6]: 8000 mg/kg; Volatility [7]: not volatile; Solubility in organic solvents ([7]; benzene, ether, heptane, methanol, cyclohexanone, acetone, methyl chloride, dichloroethane): soluble; Solubility in water ([7]; water): practically insoluble

**Q.** For `CCSC(=O)N1CCCCCC1` [Molinate, ethyl-1-hexamethylene-imino-carbothiolate, reference compound], which Effect on rice (rice [8]; 4 kg./ha.) is on record?
**A.** The Effect on rice was “Stronger than the control”.

**Q.** And the Effect on rice (rice [8]; 6 kg./ha.)?
**A.** The Effect on rice was “Stronger than the control”.

**Q.** What about the “Acute toxicity LD50” value (rats) of the same molecule?
**A.** Its value is 500 to 725 mg/kg.
